Measurements as given in US20070128217A1 (priority 2003, published 2007).

How the values were obtained:
[1] = test system: antibodies in sera from SARS patients (sera 1a, 1b, 2, 6, 37, 62, London, SARS-yellow, SARS-green); format: binding, human; parameters: Binding of serum 6 to linear peptides of protein X1 of SARS-CoV Urbani / Binding of serum 37 to linear peptides of protein X1 of SARS-CoV Urbani / Binding of serum 6 to looped/cyclic peptide (PEPSCAN-ELISA) / Binding of serum 37 to looped/cyclic peptide (PEPSCAN-ELISA) / Binding of serum 37 to looped/cyclic peptides of protein X1 of SARS-CoV Urbani / Binding of serum 6 to linear peptides of protein X2 / Binding of serum 37 to linear peptides of protein X2 / Binding of serum 37 to looped/cyclic peptides of protein X2 of SARS-CoV Urbani / Binding of serum 6 to linear peptides of protein M of SARS-CoV Urbani / Binding of serum 37 to linear peptides of protein M of SARS-CoV Urbani / Binding of serum 6 to looped/cyclic peptides of protein M of SARS-CoV Urbani / Binding of serum 37 to looped/cyclic peptides of protein M of SARS-CoV Urbani / Binding of serum 6 to linear peptides of protein X3 of SARS-CoV Urbani / Binding of serum 37 to linear peptides of protein X3 of SARS-CoV Urbani / Binding of serum 37 to looped/cyclic peptides of protein X3 of SARS-CoV Urbani / Binding of serum 6 to linear peptides of protein X4 of SARS-CoV Urbani / Binding of serum 37 to linear peptides of protein X4 of SARS-CoV Urbani / Binding of serum 37 to looped/cyclic peptides of protein X4 of SARS-CoV Urbani / Binding of serum 6 to linear peptides of protein X5 of SARS-CoV Urbani / Binding of serum 37 to linear peptides of protein X5 of SARS-CoV Urbani / Binding of serum 37 to looped/cyclic peptides of protein X5 of SARS-CoV Urbani / Binding of serum 6 to linear peptides of protein N of SARS-CoV Urbani / Binding of serum 37 to linear peptides of protein N of SARS-CoV Urbani / Binding of serum 6 to linear peptide (PEPSCAN-ELISA) / Binding of serum 1a to looped/cyclic peptides of protein N of SARS-CoV Urbani / Binding of serum 1b to looped/cyclic peptides of protein N of SARS-CoV Urbani / Binding of serum 2 to looped/cyclic peptides of protein N of SARS-CoV Urbani / Binding of serum 6 to looped/cyclic peptides of protein N of SARS-CoV Urbani / Binding of serum 37 to looped/cyclic peptides of protein N of SARS-CoV Urbani / Binding of serum 62 to looped/cyclic peptides of protein N of SARS-CoV Urbani / Binding of serum London to looped/cyclic peptides of protein N of SARS-CoV Urbani / Binding of serum SARS-green to looped/cyclic peptides of protein N of SARS-CoV Urbani: unit not given here
[2] = test system: control sera (pooled serum of ten healthy LUMC hospital workers; commercial negative donor pooled serum from the Dutch bloodbank); format: binding, human
[3] = test system: rabbit serum obtained by immunizing a rabbit with the SARS-CoV strain Frankfurt 1; format: binding; parameters: Binding of a rabbit serum to linear peptides / Binding of a rabbit serum to looped peptides / Rabbit serum linear peptides / Rabbit serum looped peptides / Binding of a rabbit serum to linear peptides of protein N of SARS-CoV Urbani (Rabbit serum linear peptides) / Binding of a rabbit serum to looped/cyclic peptides of protein N of SARS-CoV Urbani (Rabbit serum looped peptides): unit not given here
[4] = test system: recombinant human anti-SARS-CoV antibody 03-018; format: binding; parameters: Binding of antibody 03-018 to linear peptides of the N protein of SARS-CoV Urbani / Binding of antibody 03-018 to looped/cyclic peptides of the N protein of SARS-CoV Urbani: unit not given here

| Sequence | Binding of serum 1a to linear peptides of protein N of SARS-CoV Urbani [1] | Binding of serum 1b to linear peptides of protein N of SARS-CoV Urbani [1] | Binding of serum 2 to linear peptides of protein N of SARS-CoV Urbani [1] | Binding of serum 6 to linear peptides of protein N of SARS-CoV Urbani [1] | Binding of serum 37 to linear peptides of protein N of SARS-CoV Urbani [1] | Binding of serum 62 to linear peptides of protein N of SARS-CoV Urbani [1] | Binding of serum London to linear peptides of protein N of SARS-CoV Urbani [1] | Binding of serum SARS-green to linear peptides of protein N of SARS-CoV Urbani [1] | Binding of serum SARS-yellow to linear peptides of protein N of SARS-CoV Urbani [1] | Control Serum Blood-Bank Looped peptides [2] | Control serum Blood-bank linear peptides [2] | Control serum LUMC linear peptides [2] | Control serum LUMC looped peptides [2] | Binding of a rabbit serum to linear peptides of protein N of SARS-CoV Urbani (Rabbit serum linear peptides) [3] | Binding of a rabbit serum to looped/cyclic peptides of protein N of SARS-CoV Urbani (Rabbit serum looped peptides) [3] | Binding of antibody 03-018 to linear peptides of the N protein of SARS-CoV Urbani [4] | Binding of antibody 03-018 to looped/cyclic peptides of the N protein of SARS-CoV Urbani [4] | also measured |
| --- | --- | --- | --- | --- | --- | --- | --- | --- | --- | --- | --- | --- | --- | --- | --- | --- | --- | --- |
| QIAQFAPSASAFFGM | 0.3 | 0.1 | 0.2 | 0.2 | 0.7 | 0.6 | 0.5 | 0.7 | 0.7 | 0.9 | 0.9 | 0.7 | 0.7 | 0.1 | 0.5 | 0.1 | 0.3 | Binding of serum 1a to looped/cyclic peptides of protein N of SARS-CoV Urbani [1]: 0.5; Binding of serum 1b to looped/cyclic peptides of protein N of SARS-CoV Urbani [1]: 0.3; Binding of serum 2 to looped/cyclic peptides of protein N of SARS-CoV Urbani [1]: 0.5; Binding of serum 6 to looped/cyclic peptides of protein N of SARS-CoV Urbani [1]: 0.3; Binding of serum 37 to looped/cyclic peptides of protein N of SARS-CoV Urbani [1]: 0.8; Binding of serum 62 to looped/cyclic peptides of protein N of SARS-CoV Urbani [1]: 0.8; Binding of serum London to looped/cyclic peptides of protein N of SARS-CoV Urbani [1]: 0.5; Binding of serum SARS-green to looped/cyclic peptides of protein N of SARS-CoV Urbani [1]: 0.5; Binding of serum SARS-yellow to looped/cyclic peptides of protein N of SARS-CoV Urbani [1]: 0.5. |
| QKKQPTVTLLPAADM | 0.3 | 0.2 | 0.2 | 0.2 | 0.7 | 0.6 | 0.6 | 0.4 | 0.5 | 0.9 | 0.7 | 0.6 | 0.7 | 0.2 | 0.7 | 0.1 | 0.3 | Recognition of the peptide by sera of SARS-CoV infected individuals, and form (linear, looped/cyclic) in which it is recognized [1]: recognized in looped/cyclic form |
